Consider one molecule from PMC11373624, “Development and preclinical characterization of a novel radiotheranostic EphA2-targeting bicyclic peptide” (Theranostics, 2024).

For one data set, the target named is T1, Human EphA2 (Homo sapiens, UniProt P29317).
T1 construct: Human EphA2 (residues 27-529) was cloned into pEXPR-IBA44; made in house; host or cells: HEK293 f/s cells
In words: SPR binding to human EphA2. Here is the method: Human EphA2 (residues 27-529) was cloned into pEXPR-IBA44 between the 5' NheI and 3' BsaI sites to make constructs expressing a BM40 signal sequence and C-terminal 6xHIS tag. For the expression and purification of the protein, HEK293 f/s cells at 1 x 10^6/mL in freestyle media (Thermo Fisher) were transfected with 1 µg DNA per million cells by PEI either 2:1 or 3:1 PEI:DNA ratio. On day 2 valproic acid was added to a 2.2 mM concentration. The supernatant was harvested 5 days post transfection and loaded on a 1 ml Ni-NTA agarose resin (Thermo Fisher) (wash buffer: 20 mM HEPES pH 7.6, 0.5 M NaCl, 5 mM imidazole, 0.01% Tween-20 buffer; elution buffer: 20 mM HEPES pH 7.6, 0.5 M NaCl, 300 mM imidazole, 0.01% Tween-20). The protein was concentrated to a volume of 2 mL, loaded onto an S-200 Superdex column (GE Healthcare) and eluted with 20 mM HEPES pH 7.6, 150 mM NaCl, 0.01% Tween-20 at a flow rate of 1 mL/min. Fractions were collected and those containing human EphA2 protein were concentrated for further use.
(§1) SPR experiments were performed on a Biacore 8K+ (Cytiva Life Sciences, USA) instrument, with methods matched for both human and mouse EphA2 protein. Protein was captured on to a Cytiva NTA sensor chip (Cytiva Life Sciences), via the expressed His-tag; this was followed by primary amine coupling chemistry to covalently immobilize the protein to the chip at 25°C. Initially the surface was injected with 0.5 mM NiCl2 for 2 minutes, followed by activation of the carboxymethyl dextran surface for 7 minutes using an injection of a 1:1 ratio of 0.4 M 1-ethyl-3-(3-dimethylaminopropyl) carbodiimide hydrochloride (EDC)/0.1 M N-hydroxy succinimide (NHS) at a flow rate of 10 µL/min.
Human EphA2 protein was captured to the Ni-NTA surface to a level of 200-300 RU and Mouse EphA2 to 500-800 RU; the residual activated groups were then blocked with a 7 minute injection of 1 M ethanolamine (pH 8.5):HBS-N (1:1). Finally, the Ni-NTA surface was chelated with a 1-minute injection of 350 mM EDTA.
Peptide was prepared in PBS/0.05% Tween 20 with a final DMSO concentration of 0.5%. The top peptide concentration was 100 or 500 nM and 5 further 3-fold dilutions. The peptide was titrated over the chip using single cycle kinetics at 25°C at a flow rate of 75 µL/min with 60 second association and 4000 second dissociation. All data were double referenced for blank injections and reference surface using standard processing procedures. Data was characterized with a 1:1 kinetic binding model to determine kinetic rate constants ka (M^-1s^-1) and kd (s^-1) and equilibrium dissociation constant KD (nM). All data processing was performed using Cytiva Insight Evaluation (Cytiva Life Sciences, USA).
On the technique in general: In SPR one partner is held on a chip, and binding of the other changes the refractive index at the surface.

The target in the next data set is T2, Mouse EphA2 (Mus musculus, UniProt Q03145).
T2 construct: Fc; purchased R&D Systems 639-A2
T2 sequence (Q03145 with tags, fused parts or gaps limits assumed): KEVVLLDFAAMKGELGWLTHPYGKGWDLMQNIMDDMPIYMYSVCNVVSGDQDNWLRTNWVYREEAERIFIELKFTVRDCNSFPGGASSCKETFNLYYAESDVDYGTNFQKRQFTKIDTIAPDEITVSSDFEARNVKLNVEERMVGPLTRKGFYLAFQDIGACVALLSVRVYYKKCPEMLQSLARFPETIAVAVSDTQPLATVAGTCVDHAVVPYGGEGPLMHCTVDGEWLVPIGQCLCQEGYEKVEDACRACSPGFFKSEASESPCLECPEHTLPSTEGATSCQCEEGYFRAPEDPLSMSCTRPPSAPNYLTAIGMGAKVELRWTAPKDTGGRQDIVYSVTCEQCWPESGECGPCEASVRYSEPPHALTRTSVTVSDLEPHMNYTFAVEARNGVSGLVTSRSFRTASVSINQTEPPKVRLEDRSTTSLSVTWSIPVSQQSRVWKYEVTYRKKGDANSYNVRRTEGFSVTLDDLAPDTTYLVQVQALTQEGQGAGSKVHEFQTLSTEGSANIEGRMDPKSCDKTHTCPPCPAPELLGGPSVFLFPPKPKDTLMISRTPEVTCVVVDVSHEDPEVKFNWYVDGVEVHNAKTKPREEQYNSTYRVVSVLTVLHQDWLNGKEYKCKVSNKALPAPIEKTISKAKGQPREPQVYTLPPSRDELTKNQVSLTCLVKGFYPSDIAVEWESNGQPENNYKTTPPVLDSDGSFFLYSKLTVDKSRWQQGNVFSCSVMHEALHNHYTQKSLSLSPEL
The experiment in a line: SPR binding to mouse EphA2. The procedure: (§2) The commercial source details of the recombinant proteins used in SPR were as follows: Human proteins: EphA1 (15789-H02H, Sino Biological), EphA3 (644-A3, R&D Systems), EphA6 (5606-A6, R&D Systems), EphA7 (6756-A7, R&D Systems). Mouse proteins: Mouse EphA2 was purchased from R&D Systems (Product number 639-A2). Mouse EphA2-Fc was resuspended as per manufacturer's recommendations and material was passed through a SuperdexS200 column to remove aggregates.
as §1
Human EphA2 protein was captured to the Ni-NTA surface to a level of 200-300 RU and Mouse EphA2 to 500-800 RU; the residual activated groups were then blocked with a 7 minute injection of 1 M ethanolamine (pH 8.5):HBS-N (1:1). […]

A further data set deals with T3, Human EphA1 (Homo sapiens, UniProt P21709).
T3 construct: purchased Sino Biological 15789-H02H
T3 sequence (P21709 26-547 limits assumed): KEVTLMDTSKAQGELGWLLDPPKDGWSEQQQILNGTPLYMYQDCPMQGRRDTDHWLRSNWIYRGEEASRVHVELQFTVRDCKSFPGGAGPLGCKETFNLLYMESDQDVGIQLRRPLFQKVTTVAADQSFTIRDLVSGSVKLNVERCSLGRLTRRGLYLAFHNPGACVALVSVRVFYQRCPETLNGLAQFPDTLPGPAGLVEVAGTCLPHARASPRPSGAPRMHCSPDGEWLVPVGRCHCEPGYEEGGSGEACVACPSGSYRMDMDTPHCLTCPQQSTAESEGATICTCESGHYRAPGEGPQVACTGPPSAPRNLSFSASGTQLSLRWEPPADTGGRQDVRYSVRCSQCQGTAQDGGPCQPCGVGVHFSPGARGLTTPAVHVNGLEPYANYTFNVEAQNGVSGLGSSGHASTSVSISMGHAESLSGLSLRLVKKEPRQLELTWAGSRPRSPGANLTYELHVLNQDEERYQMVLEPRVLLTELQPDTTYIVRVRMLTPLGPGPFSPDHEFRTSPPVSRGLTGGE
The experiment in a line: SPR homologue panel, EphA1. The settings on record: human EphA1, n=1; read-out: KD, no binding up to. Here is the method: as §2, §1
Peptide was prepared in PBS/0.05% Tween 20 with a final DMSO concentration of 0.5%. The top peptide concentration was 100 or 500 nM and 5 further 3-fold dilutions. […]

For a further data set, the target named is Human EphA4 (Homo sapiens, UniProt P54764). The experiment in a line: SPR homologue panel, EphA4. The settings on record: human EphA4, n=1; read-out: KD, no binding up to.
Sequence of Human EphA4 (P54764 20-986): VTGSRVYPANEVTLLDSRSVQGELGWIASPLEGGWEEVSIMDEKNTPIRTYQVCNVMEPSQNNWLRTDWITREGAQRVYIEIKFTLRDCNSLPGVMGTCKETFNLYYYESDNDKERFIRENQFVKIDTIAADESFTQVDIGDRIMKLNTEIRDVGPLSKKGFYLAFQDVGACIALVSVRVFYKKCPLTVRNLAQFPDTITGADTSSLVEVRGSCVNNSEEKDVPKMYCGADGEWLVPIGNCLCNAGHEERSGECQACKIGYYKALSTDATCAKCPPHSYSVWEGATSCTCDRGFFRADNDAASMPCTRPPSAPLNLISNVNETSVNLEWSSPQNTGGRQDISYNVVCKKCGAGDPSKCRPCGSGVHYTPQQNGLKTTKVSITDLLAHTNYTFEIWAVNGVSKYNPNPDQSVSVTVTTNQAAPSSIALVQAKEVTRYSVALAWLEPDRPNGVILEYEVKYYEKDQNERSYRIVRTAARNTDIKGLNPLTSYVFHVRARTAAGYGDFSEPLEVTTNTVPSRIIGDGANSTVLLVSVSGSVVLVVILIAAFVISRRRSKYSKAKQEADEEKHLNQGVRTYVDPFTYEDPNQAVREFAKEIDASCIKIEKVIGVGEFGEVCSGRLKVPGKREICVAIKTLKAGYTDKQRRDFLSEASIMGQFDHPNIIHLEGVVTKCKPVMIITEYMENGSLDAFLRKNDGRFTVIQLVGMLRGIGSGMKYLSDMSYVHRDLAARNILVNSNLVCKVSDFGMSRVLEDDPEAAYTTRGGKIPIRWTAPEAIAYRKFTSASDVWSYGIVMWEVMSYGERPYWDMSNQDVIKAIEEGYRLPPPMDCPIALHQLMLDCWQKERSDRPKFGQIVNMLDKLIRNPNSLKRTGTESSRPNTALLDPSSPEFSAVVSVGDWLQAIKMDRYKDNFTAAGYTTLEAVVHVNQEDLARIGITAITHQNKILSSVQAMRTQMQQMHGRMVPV
In the next data set the target is Human EphA5 (Homo sapiens, UniProt P54756). In words: SPR homologue panel, EphA5. As to conditions: human EphA5, n=1; read-out: KD, no binding up to.
Sequence of Human EphA5 (P54756 25-1037): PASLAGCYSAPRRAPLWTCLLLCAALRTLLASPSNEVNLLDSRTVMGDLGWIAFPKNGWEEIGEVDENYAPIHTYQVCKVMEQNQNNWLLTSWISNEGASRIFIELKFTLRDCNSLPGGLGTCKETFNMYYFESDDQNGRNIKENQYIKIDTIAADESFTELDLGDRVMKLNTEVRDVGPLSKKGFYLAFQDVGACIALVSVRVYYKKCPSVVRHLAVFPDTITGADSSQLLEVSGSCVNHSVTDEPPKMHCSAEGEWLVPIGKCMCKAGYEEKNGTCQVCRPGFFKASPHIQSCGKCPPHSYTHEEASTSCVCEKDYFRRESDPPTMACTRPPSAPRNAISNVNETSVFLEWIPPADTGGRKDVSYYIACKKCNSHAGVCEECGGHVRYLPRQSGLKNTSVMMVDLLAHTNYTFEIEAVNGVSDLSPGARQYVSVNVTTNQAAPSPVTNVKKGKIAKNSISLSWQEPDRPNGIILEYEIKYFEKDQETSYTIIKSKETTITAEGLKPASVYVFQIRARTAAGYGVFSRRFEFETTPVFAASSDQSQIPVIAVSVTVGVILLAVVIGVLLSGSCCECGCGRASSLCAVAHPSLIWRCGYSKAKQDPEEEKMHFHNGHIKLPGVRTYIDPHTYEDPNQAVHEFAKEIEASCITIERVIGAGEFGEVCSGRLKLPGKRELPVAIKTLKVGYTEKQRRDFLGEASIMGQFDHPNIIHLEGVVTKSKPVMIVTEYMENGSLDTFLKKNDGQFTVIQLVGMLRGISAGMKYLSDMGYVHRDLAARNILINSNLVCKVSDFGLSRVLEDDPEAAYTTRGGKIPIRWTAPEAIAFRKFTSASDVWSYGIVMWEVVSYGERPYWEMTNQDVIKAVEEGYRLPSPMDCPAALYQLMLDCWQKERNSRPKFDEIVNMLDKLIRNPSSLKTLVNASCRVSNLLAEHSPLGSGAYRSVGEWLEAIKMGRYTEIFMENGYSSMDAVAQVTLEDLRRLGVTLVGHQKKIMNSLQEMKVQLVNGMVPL
For data set [1] the following is noted: male, CD-1 (ICR), mouse, in vivo, iv, 1 mg/kg.
Experimental: (§3) In vivo pharmacokinetic studies were conducted in male CD-1 (ICR) mice, 7-9 weeks of age. […] Serial venous blood samples were taken at 5 min, 15 min, 30 min, 45 min, 1 h, 2 h and 4 h post injection. Samples were immediately transferred into low-binding microcentrifuge tubes containing 2 μL K2-EDTA (0.5 M) as anti-coagulant and kept on ice until processed by centrifugation at 4°C, 3200 g for 10 min. The resulting plasma was transferred into low-binding tubes and the protein precipitated by addition of methanol containing 0.5% Triton X-100 and internal standards (100 ng/mL each of labetalol, tolbutamide, verapamil, dexamethasone, glyburide and celecoxib). Samples were centrifuged at 4°C, 12000 g for 15 min and the supernatant removed, frozen over dry ice and stored at -70°C until LC-MS/MS analysis (Supplementary Materials - Methods). A calibration curve and quality control samples were prepared in the same matrix. Pharmacokinetic parameters were derived from noncompartmental analysis using the intravenous-noncompartmental model 201 (IV bolus input) in Phoenix WinNonlin version 8.3.5 (Certara, USA).
The nature of another data set: in vivo. The settings on record: male, CD-1 (ICR), mouse, iv, 1 mg/kg.

Numbered stars: 1 amine (or outer) side, 2 acyl side, 3 side chain; on linkers, the order of the positions; unused ones are H or OH. Bridge positions count the residues as written; N and C are the ends. Square brackets hold non-standard residues; d marks the D form. Peptide text beside a SMILES is read from it. * marks the point of attachment. DOTA = O=C(O)CN1CCN(CC(=O)O)CCN(CC(=O)*)CCN(CC(=O)O)CC1; TATA = O=C(CC[*:1])N1CN(C(=O)CC[*:2])CN(C(=O)CC[*:3])C1; Hyp = O=C(O)[C@@H]1C[C@@H](O)CN1; hArg = N=C(N)NCCCC[C@H](N)C(=O)O; Cba = N[C@@H](CC1CCC1)C(=O)O; βAla = NCCC(=O)O; Sar = CNCC(=O)O

T1 sequence (P29317 27-529): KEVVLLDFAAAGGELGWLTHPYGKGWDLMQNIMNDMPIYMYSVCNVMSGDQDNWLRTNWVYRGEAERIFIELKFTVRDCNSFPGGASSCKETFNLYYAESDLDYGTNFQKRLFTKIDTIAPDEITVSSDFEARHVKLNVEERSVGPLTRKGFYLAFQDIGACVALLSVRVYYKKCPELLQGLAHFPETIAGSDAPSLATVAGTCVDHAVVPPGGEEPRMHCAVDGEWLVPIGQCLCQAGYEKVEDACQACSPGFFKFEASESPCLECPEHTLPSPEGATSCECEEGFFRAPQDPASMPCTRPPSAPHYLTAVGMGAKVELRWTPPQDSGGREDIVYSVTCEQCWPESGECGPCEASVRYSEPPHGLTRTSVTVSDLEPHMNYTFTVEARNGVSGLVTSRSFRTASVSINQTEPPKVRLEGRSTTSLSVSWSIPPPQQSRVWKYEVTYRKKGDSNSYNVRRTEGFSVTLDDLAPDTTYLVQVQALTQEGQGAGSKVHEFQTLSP
Experimental for in vivo: as §3

On to `CC(C)C[C@@H]1NC(=O)[C@@H]2CSCCC(=O)N3CN(CN(C3)C(=O)CCSC[C@H](NC(=O)[C@H](CC(=O)O)NC(=O)[C@H](CCCCNC(=N)N)NC(=O)[C@H](C)NC(=O)CN(C)C(=O)CN(C)C(=O)CN(C)C(=O)CN(C)C(=O)CN(C)C(=O)CN(C)C(=O)CN(C)C(=O)CN(C)C(=O)CN(C)C(=O)CN(C)C(=O)CCNC(=O)CN3CCN(CC(=O)O)CCN(CC(=O)O)CCN(CC(=O)O)CC3)C(=O)N3C[C@H](O)C[C@H]3C(=O)N[C@@H](CC3CCC3)C(=O)N[C@@H](C(C)C)C(=O)N[C@@H](CC(N)=O)C(=O)N3CCC[C@H]3C(=O)N[C@@H](CC(C)C)C(=O)N2)C(=O)CCSC[C@@H](C(N)=O)NC(=O)[C@H](CCCCNC(=N)N)NC(=O)[C@H](Cc2c[nH]c3ccccc23)NC(=O)[C@@H](CC(=O)O)NC(=O)[C@@H]2CCCN2C(=O)[C@H](Cc2c[nH]cn2)NC1=O` [BCY18469, [-DOTA]-[B-Ala]-[Sar10]-Ala-[HArg]-Asp-Cys-[HyP]-[Cba]-Val-Asn-Pro-Leu-Cys-Leu-His-Pro-[dAsp]-Trp-[HArg]-Cys-CONH2] ({DOTA-βAla}-[Sar][Sar][Sar][Sar][Sar][Sar][Sar][Sar][Sar][Sar]A[hArg]DC[Hyp][Cba]VNPLCLHP[dD]W[hArg]C-NH2; linker 14-21-28 via TATA), for which the dissociation constant Kd on Human EphA2 (human EphA2, 25°C, read-out: KD (SPR)) was 1.93 ± 0.35 nM; at Mouse EphA2 (mouse EphA2, 25°C), 3.82 ± 0.56 nM; at Human EphA1, > 5000 nM; on Human EphA4, > 5000 nM; on Human EphA5, > 5000 nM. For the same molecule, the kon at Human EphA2 (human EphA2, n=2, read-out: ka) worked out at 1.82e+06 M⁻¹ s⁻¹; at Mouse EphA2 (mouse EphA2, n=2, read-out: ka), 419000 M⁻¹ s⁻¹. Moreover, the CLp in data set [1] is 24 mL/min/kg. For the same molecule, the AUC(0-inf) in the data set “in vivo” was determined as 701 ng·h/mL. Moreover, in “in vivo”, the AUC(0-t) turned out to be 700 ng·h/mL. Besides, the concentration in “in vivo” peaked (Cmax) at 3320 ng/mL. In the data set “in vivo”, this molecule gave a volume of distribution (Vd) of 0.39 L/kg. In “in vivo”, the half-life was 14.4 min. Besides, the clearance in the data set “in vivo” (CLp) turned out to be 23.9 mL/min/kg.

Usually Kd stands for the concentration at which binding is half-saturated. As a reminder, the AUC(0-inf) is the area under the concentration-time curve extrapolated to infinity. A high value points to more exposure. What is called AUC(0-t) is exposure summed from dosing to a finite time, without extrapolation to infinity. A low value points to low exposure. For orientation: Cmax means the peak of the concentration-time curve. One may read the Vd as the apparent volume that relates the amount in the body to the concentration in plasma or blood. Read a high Vd as wide distribution into tissue. Usually half-life stands for the time needed for the level to fall by half in the phase considered. Lower therefore signals rapid decline. As a reminder, the clearance is the rate of elimination divided by the concentration.
